Laboratory results published in ChEMBL document CHEMBL1127101, “Interaction of rigid polyamine analogues with the NMDA receptor complex from rat brain” (Bioorg Med Chem Lett, 1993).

How the values were obtained:
[1] = target: Glutamate NMDA receptor; test: Tested for the binding of [3H]dizocilpine to NMDA receptor in rat brain membranes in the presence of 500 uM spermidine; format: cell membranes
[2] = Tested for the increase in [Ca2+] produced by 30 uM of the compound; format: functional
[3] = target: Glutamate NMDA receptor; test: Tested for the binding of [3H]dizocilpine to DEPC (diethylpyrocarbonate) membranes of rat

Compound | IC50 [1] [µM] | Increase [2] [%] | IC50 [3] [µM]
Cc1cc2nc3cc(C)c(N)cc3[n+](-c3ccccc3)c2cc1N | 2.21 | 77.9 | 3.95
CC[n+]1c(-c2ccccc2)c2cc(N)ccc2c2ccc(N)cc21 [HOMIDIUM BROMIDE] | 7.34 | 84.7 | 3.13
Nc1ccc2nc3ccc(N)cc3[n+](-c3ccccc3)c2c1 [PHENOSAFRANINE] | 4.33 | 78.4 | 2.7
CC[N+](C)(CC)CCC[n+]1c(-c2ccccc2)c2cc(N)ccc2c2ccc(N)cc21 [PROPIDIUM] | > 1000 | 97.6 | 6.8
